As a reminder, the EC50 is the concentration giving half of the maximal effect. A low value points to greater potency. A word on the inhibition: it is how much of the control response was suppressed.

The values that follow come from patent publication US10285982B2, “3-(1H-pyrrolo[2,3-B]pyridin-2-yl)-1H-pyrazolo[3,4-C]pyridines and therapeutic uses thereof” (Samumed, LLC, priority 2015, dated 2019).

What all share (assay type): cell-based
In assay [1] the test system is Wnt activity (Sp5-Luc reporter, SW480 colon carcinoma cells). Briefly: Wnt activity screening assay, Sp5-Luc reporter gene in SW480 cells. As to conditions: Homo sapiens; for EC50: overnight incubation; for inhibition at 10 µM: given where EC50 >10 μM, read-out: percent inhibition at 10 μM. In a few lines: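 Luminescence read-out (BrightGlo) from stable Sp5-Luc SW480 cells, normalized to DMSO-only wells. Cells were treated overnight at 37° C in 1% FBS medium across a 1:3, 10-point series starting at 10 μM. EC50 from variable-slope four-parameter regression; percent inhibition at 10 μM given where EC50 >10 μM.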

The next assay relates to SW480 colon cancer cells. Briefly: Cell viability assay (CellTiter-Blue). As to conditions: Homo sapiens, 96 h, four days; for inhibition at 10 µM: given where EC50 >10 μM, read-out: percent inhibition at 10 μM. In a few lines:
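Four-day viability readout in SW480 cells: compound at 0.0045–10 μM (1:3 series), DMSO controls in eight replicates, CellTiter-Blue fluorescence after ~3 h. Values are regression-derived EC50s, or percent inhibition at 10 μM when EC50 exceeds 10 μM.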
Background: The colour change of resazurin is a common sign of viable cells or microbes.

Another assay concerns IL-6 (THP-1 cells). Briefly: IL-6 inhibition in LPS-stimulated THP-1 cells (HTRF). As to conditions: Homo sapiens; for EC50: IL-6 in THP-1 cells, LPS 500 ng/mL, 22 hours; for inhibition at 10 µM: given where EC50 >10 μM, IL-6, THP-1 cells, LPS, read-out: percent inhibition at 10 μM. In a few lines:
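Readout is the 665/620 nm HTRF ratio for secreted IL-6, normalized to DMSO wells, with EC50 from a variable-slope four-parameter fit, or % inhibition at 10 μM when above 10 μM. Cells (1% FBS, 24 h beforehand) got compound for 2 h, then LPS 500 ng/mL for 22 h at 37° C; top dose 10 μM, 0.1% DMSO.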
In general terms: Time-resolved FRET reads energy transfer from a long-lived donor to a nearby acceptor.

`Oc1cncc(-c2cc3c(-c4cc5c(-c6ccc(F)cc6)ccnc5[nH]4)n[nH]c3cn2)c1` [Compound 533, 5-(3-(4-(4-Fluorophenyl)-1H-pyrrolo[2,3-b]pyridin-2-yl)-1H-pyrazolo[3,4-c]pyridin-5-yl)pyridin-3-ol]: the EC50 in assay [1] was 0.456 µM; in the assay with SW480 colon cancer cells, 0.483 µM; with IL-6 (THP-1 cells) it was over 10 µM. Moreover, in the assay on IL-6 (THP-1 cells), the inhibition at 10 µM came out at 7.2%.

On to `CN(C)CCOc1cncc(-c2cc3c(-c4cc5c(-c6cccnc6)ccnc5[nH]4)n[nH]c3cn2)c1` [Compound 563, N,N-Dimethyl-2-((5-(3-(4-(pyridin-3-yl)-1H-pyrrolo[2,3-b]pyridin-2-yl)-1H-pyrazolo[3,4-c]pyridin-5-yl)pyridin-3-yl)oxy)ethan-1-amine], for which the inhibition at 10 µM came out at 28.8% in assay [1], 0% in the assay with SW480 colon cancer cells and 15% with IL-6 (THP-1 cells). Further, the half-maximal effective concentration (EC50) (in assay [1]; in the assay on SW480 colon cancer cells; in the assay with IL-6 (THP-1 cells)) was over 10 µM throughout.

On to `c1cc(N2CCCCC2)c2cc(-c3n[nH]c4cnc(C5CCNCC5)cc34)[nH]c2n1` [Compound 601, 3-(4-(Piperidin-1-yl)-1H-pyrrolo[2,3-b]pyridin-2-yl)-5-(piperidin-4-yl)-1H-pyrazolo[3,4-c]pyridine], for which the inhibition at 10 µM in assay [1] amounted to 0%; in the assay on SW480 colon cancer cells, 12%; with IL-6 (THP-1 cells), 3%. For the same compound, the EC50 (in assay [1]; in the assay with SW480 colon cancer cells; in the assay on IL-6 (THP-1 cells)) was over 10 µM throughout.

For `CN1CCN(c2ccnc3[nH]c(-c4n[nH]c5cnc(-c6cn[nH]c6)cc45)cc23)CC1` [Compound 635, 3-(4-(4-Methylpiperazin-1-yl)-1H-pyrrolo[2,3-b]pyridin-2-yl)-5-(1H-pyrazol-4-yl)-1H-pyrazolo[3,4-c]pyridine], the inhibition at 10 µM in assay [1] came to 25.4%; with SW480 colon cancer cells, 10.7%; with IL-6 (THP-1 cells) it was 10.9%. The EC50 (in assay [1]; with SW480 colon cancer cells; with IL-6 (THP-1 cells)) was over 10 µM each time.

Regarding `CN1CCN(c2ccnc3[nH]c(-c4n[nH]c5cnc(-c6cncc(NC(=O)CC7CCNCC7)c6)cc45)cc23)CC1` [Compound 641, N-(5-(3-(4-(4-Methylpiperazin-1-yl)-1H-pyrrolo[2,3-b]pyridin-2-yl)-1H-pyrazolo[3,4-c]pyridin-5-yl)pyridin-3-yl)-2-(piperidin-4-yl)acetamide], the inhibition at 10 µM in assay [1] was found to be 8%; in the assay with SW480 colon cancer cells, 13.1%; in the assay on IL-6 (THP-1 cells), 29.6%. The EC50 (in assay [1]; with SW480 colon cancer cells; in the assay with IL-6 (THP-1 cells)) was over 10 µM throughout.

On to `Cn1cc(-c2cc3c(-c4cc5cccnc5[nH]4)n[nH]c3cn2)cn1` [Compound 652, 5-(1-Methyl-1H-pyrazol-4-yl)-3-(1H-pyrrolo[2,3-b]pyridin-2-yl)-1H-pyrazolo[3,4-c]pyridine], for which the figures for the inhibition at 10 µM (in assay [1]; in the assay on SW480 colon cancer cells; with IL-6 (THP-1 cells)) were 21.6%, 0% and 15.2%, respectively. Also, the EC50 (in assay [1]; with SW480 colon cancer cells; in the assay on IL-6 (THP-1 cells)) was over 10 µM in each case.

Regarding `c1csc(-c2ccnc3[nH]c(-c4n[nH]c5cnc(-c6cncc(OC7CCCCC7)c6)cc45)cc23)c1` [Compound 703, 5-(5-(Cyclohexyloxy)pyridin-3-yl)-3-(4-(thiophen-2-yl)-1H-pyrrolo[2,3-b]pyridin-2-yl)-1H-pyrazolo[3,4-c]pyridine], the inhibition at 10 µM in assay [1] worked out at 13.6%; in the assay with SW480 colon cancer cells it was 2.7%; with IL-6 (THP-1 cells), 43.3%. Besides, the EC50 (in assay [1]; in the assay with SW480 colon cancer cells; in the assay with IL-6 (THP-1 cells)) was over 10 µM each time.
